Laboratory results: US20230233569A1 (Revolution Medicines, Inc., priority 2020, published 2023)
Like-named read-outs stand apart in the source and are kept apart here.

Experiments:
Assay in all cases: Ras-Raf disruption / FRET / MOA assay (BRAF RBD)
Type in all cases: biochemical
KRAS Q61H = KRAS Q61H (Homo sapiens, UniProt P01116+P62937, Q61H)
Summary of the method: (§1)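 TR-FRET in 25 mM HEPES pH 7.3, 100 mM NaCl, 5 mM MgCl2, 0.1% BSA, 0.002% Tween20 with 25 μM Cyclophilin A, 12.5 nM His6-Ras-GMPPNP, 50 nM GST-BRAF RBD; compound 10-point 3-fold series from 30 μM. After 3 h at 25 °C, Eu anti-His/APC anti-GST added for 1.5 h; IC50 from ratio decrease versus DMSO.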

NRAS WT = NRAS WT (Homo sapiens, UniProt P01111+P62937)
Summary of the method: as §1

KRAS G12V = KRAS G12V (Homo sapiens, UniProt P01116+P62937, G12V); conditions: with Cyclophilin A
Summary of the method: as §1

KRAS G13D = KRAS G13D (Homo sapiens, UniProt P01116+P62937, G13D); conditions: with Cyclophilin A
Summary of the method: as §1

NRAS Q61R = NRAS Q61R (Homo sapiens, UniProt P01111+P62937, Q61R)
Summary of the method: as §1

NRAS G12C = NRAS G12C (Homo sapiens, UniProt P01111+P62937, G12C)
Summary of the method: as §1

KRAS G13C = KRAS G13C (Homo sapiens, UniProt P01116+P62937, G13C); conditions: with Cyclophilin A
Summary of the method: as §1

KRAS G12S = KRAS G12S (Homo sapiens, UniProt P01116+P62937, G12S); conditions: with Cyclophilin A
Summary of the method: as §1

NRAS Q61K = NRAS Q61K (Homo sapiens, UniProt P01111+P62937, Q61K)
Summary of the method: as §1

KRAS G12D = KRAS G12D (Homo sapiens, UniProt P01116+P62937, G12D); conditions: with Cyclophilin A
Summary of the method: as §1

KRAS WT = KRAS WT (Homo sapiens, UniProt P01116+P62937); conditions: with Cyclophilin A
Summary of the method: as §1

KRAS G12C = KRAS G12C (Homo sapiens, UniProt P01116+P62937, G12C); conditions: with Cyclophilin A
Summary of the method: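 His6-K-Ras G12C-GMPPNP (12.5 nM), GST-BRAF RBD (50 nM) and tagless Cyclophilin A (25 μM) incubated 3 h at 25 °C with compound (10-point 3-fold series from 30 μM), pH 7.3 HEPES buffer. Anti-His Eu/anti-GST APC added for 1.5 h; decreased TR-FRET ratio vs DMSO gives IC50.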

[1] = KRAS Q61H, read-out: KRAS Q61H FRET data IC50
[2] = NRAS WT, read-out: NRAS WT FRET data IC50
[3] = Ras-Raf disruption, read-out: KRAS G12V FRET data IC50
[4] = Ras-Raf disruption, read-out: KRAS G13D FRET data IC50
[5] = NRAS Q61R, read-out: NRAS Q61R FRET data IC50
[6] = NRAS G12C, read-out: NRAS G12C FRET data IC50
[7] = Ras-Raf disruption, read-out: KRAS G13C FRET data IC50
[8] = Ras-Raf disruption, read-out: KRAS G12S FRET data IC50
[9] = NRAS Q61K, read-out: NRAS Q61K FRET data IC50
[10] = Ras-Raf disruption, read-out: KRAS G12D FRET data IC50
[11] = Ras-Raf disruption, read-out: KRAS WT FRET data IC50
[12] = Ras-Raf disruption, read-out: KRAS G12C FRET data IC50
[13] = KRAS G12V FRET data IC50, Ras-Raf disruption
[14] = KRAS G13D FRET data IC50, Ras-Raf disruption
[15] = NRAS G12C FRET data IC50, NRAS G12C
[16] = KRAS G13C FRET data IC50, Ras-Raf disruption
[17] = KRAS G12S FRET data IC50, Ras-Raf disruption
[18] = KRAS G12D FRET data IC50, Ras-Raf disruption
[19] = KRAS WT FRET data IC50, Ras-Raf disruption
[20] = KRAS G12C FRET data IC50, Ras-Raf disruption

Sequence of NRAS G12C (P01111 whole entry G12C): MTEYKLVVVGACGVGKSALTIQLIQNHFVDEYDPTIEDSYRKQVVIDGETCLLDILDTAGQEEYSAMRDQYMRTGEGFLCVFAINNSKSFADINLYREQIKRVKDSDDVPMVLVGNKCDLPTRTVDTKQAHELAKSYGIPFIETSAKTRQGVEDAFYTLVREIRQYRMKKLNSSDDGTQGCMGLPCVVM
Sequence of NRAS G12C (P62937 whole entry): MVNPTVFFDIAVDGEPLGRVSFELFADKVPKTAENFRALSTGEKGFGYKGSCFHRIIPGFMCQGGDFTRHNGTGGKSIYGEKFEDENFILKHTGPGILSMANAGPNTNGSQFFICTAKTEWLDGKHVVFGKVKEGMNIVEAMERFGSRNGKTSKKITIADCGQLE
Sequence of KRAS WT (P01116 1-169 isoform P01116-2 limits assumed): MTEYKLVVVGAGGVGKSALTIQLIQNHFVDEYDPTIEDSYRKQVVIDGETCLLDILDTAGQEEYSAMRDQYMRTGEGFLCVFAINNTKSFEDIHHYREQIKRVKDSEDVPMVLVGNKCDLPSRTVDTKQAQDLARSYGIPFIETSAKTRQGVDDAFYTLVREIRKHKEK
Sequence of KRAS WT (P62937 whole entry): as the sequence (P62937 whole entry) above
Sequence of KRAS G12V (P01116 1-169 isoform P01116-2 G12V limits assumed): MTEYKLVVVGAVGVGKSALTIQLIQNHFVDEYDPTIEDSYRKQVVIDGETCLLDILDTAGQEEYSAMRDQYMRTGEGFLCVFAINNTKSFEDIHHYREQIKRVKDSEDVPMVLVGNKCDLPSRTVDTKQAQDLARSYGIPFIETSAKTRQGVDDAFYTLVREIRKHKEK
Sequence of KRAS G12V (P62937 whole entry): as the sequence (P62937 whole entry) above
Sequence of KRAS G12S (P01116 1-169 isoform P01116-2 G12S limits assumed): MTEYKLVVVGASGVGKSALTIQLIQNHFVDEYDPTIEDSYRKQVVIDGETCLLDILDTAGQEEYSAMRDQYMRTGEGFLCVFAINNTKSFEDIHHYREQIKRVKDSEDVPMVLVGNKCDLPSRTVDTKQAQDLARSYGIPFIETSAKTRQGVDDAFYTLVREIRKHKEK
Sequence of KRAS G12S (P62937 whole entry): as the sequence (P62937 whole entry) above
Sequence of KRAS G13C (P01116 1-169 isoform P01116-2 G13C limits assumed): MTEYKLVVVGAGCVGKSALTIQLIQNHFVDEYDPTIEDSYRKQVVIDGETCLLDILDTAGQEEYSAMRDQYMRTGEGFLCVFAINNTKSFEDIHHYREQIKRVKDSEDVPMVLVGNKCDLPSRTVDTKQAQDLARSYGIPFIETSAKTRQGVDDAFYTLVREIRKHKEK
Sequence of KRAS G13C (P62937 whole entry): as the sequence (P62937 whole entry) above
Sequence of KRAS Q61H (P01116 1-169 isoform P01116-2 Q61H limits assumed): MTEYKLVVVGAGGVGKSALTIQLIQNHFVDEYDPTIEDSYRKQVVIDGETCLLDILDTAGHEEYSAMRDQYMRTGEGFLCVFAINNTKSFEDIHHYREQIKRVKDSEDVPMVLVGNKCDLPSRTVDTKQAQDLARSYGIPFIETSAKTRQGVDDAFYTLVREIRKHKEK
Sequence of KRAS Q61H (P62937 whole entry): as the sequence (P62937 whole entry) above
Sequence of KRAS G12C (P01116 1-169 isoform P01116-2 G12C limits assumed): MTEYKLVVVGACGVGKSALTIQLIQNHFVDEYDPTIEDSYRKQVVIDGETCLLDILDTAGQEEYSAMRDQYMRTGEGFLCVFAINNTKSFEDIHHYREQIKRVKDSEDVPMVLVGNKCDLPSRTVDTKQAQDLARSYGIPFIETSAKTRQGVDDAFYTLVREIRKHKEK
Sequence of KRAS G12C (P62937 whole entry): as the sequence (P62937 whole entry) above
Sequence of KRAS G12D (P01116 1-169 isoform P01116-2 G12D limits assumed): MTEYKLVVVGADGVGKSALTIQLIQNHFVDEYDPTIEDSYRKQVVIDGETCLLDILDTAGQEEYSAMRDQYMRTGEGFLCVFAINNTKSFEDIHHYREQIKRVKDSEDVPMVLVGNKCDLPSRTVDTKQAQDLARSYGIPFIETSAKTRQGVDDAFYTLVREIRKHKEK
Sequence of KRAS G12D (P62937 whole entry): as the sequence (P62937 whole entry) above
Sequence of KRAS G13D (P01116 1-169 isoform P01116-2 G13D limits assumed): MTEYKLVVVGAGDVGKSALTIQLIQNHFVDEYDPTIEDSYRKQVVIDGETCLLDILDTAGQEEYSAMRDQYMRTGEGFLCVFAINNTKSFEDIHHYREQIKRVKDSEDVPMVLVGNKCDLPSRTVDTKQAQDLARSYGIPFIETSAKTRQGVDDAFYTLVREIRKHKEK
Sequence of KRAS G13D (P62937 whole entry): as the sequence (P62937 whole entry) above
Sequence of NRAS Q61R (P01111 whole entry Q61R): as the sequence (P01111 whole entry G12C) above, with C12G, Q61R counted along it
Sequence of NRAS Q61R (P62937 whole entry): as the sequence (P62937 whole entry) above
Sequence of NRAS Q61K (P01111 whole entry Q61K): as the sequence (P01111 whole entry G12C) above, with C12G, Q61K counted along it
Sequence of NRAS Q61K (P62937 whole entry): as the sequence (P62937 whole entry) above
Sequence of NRAS WT (P01111 whole entry): as the sequence (P01111 whole entry G12C) above, with C12G counted along it
Sequence of NRAS WT (P62937 whole entry): as the sequence (P62937 whole entry) above

SMILES | IC50 (KRAS Q61H; [1]) [µM] | IC50 (NRAS WT; [2]) [µM] | IC50 (KRAS G12V; [3]) [µM] | IC50 (KRAS G13D; [4]) [µM] | IC50 (NRAS Q61R; [5]) [µM] | IC50 (NRAS G12C; [6]) [µM] | IC50 (KRAS G13C; [7]) [µM] | IC50 (KRAS G12S; [8]) [µM] | IC50 (NRAS Q61K; [9]) [µM] | IC50 (KRAS G12D; [10]) [µM] | IC50 (KRAS WT; [11]) [µM] | IC50 (KRAS G12C; [12]) [µM] | IC50 (KRAS Q61H) [µM] | IC50 (NRAS WT) [µM] | IC50 (KRAS G12V; [13]) [µM] | IC50 (KRAS G13D; [14]) [µM] | IC50 (NRAS Q61R) [µM] | IC50 (NRAS G12C; [15]) [µM] | IC50 (KRAS G13C; [16]) [µM] | IC50 (KRAS G12S; [17]) [µM] | other results
CCn1c(-c2cccnc2[C@H](C)OC)c2c3cc(ccc31)-c1csc(n1)C[C@H](NC(=O)[C@H](C(C)C)N(C)C(=O)N(C)CC1CN(C(=O)[C@@H]3CN3)C1)C(=O)N1CCC[C@H](N1)C(=O)OCC(C)(C)C2 (atropisomer, axis not shown) [Example 294] | 0.01 to 0.1 | 0.1 to 1 | 0.1 to 1 | 0.1 to 1 | 0.1 to 1 | 0.01 to 0.1 | 0.1 to 1 | 0.1 to 1 | 0.01 to 0.1 | 0.1 to 1 | 0.1 to 1 | 0.01 to 0.1 |  |  |  |  |  |  |  |  | 
CCn1c(-c2cccnc2[C@H](C)OC)c2c3cc(ccc31)-c1cc(O)cc(c1)C[C@H](NC(=O)[C@H](C(C)C)N(C)C(=O)CN(C)S(=O)(=O)[C@H]1CN1C)C(=O)N1CCC[C@H](N1)C(=O)OCC(C)(C)C2 (single isomer, unassigned) [Example 91] | 0.01 to 0.1 | 0.01 to 0.1 | 0.1 to 1 | 0.1 to 1 | 0.1 to 1 | 0.01 to 0.1 | 0.01 to 0.1 | 0.01 to 0.1 | 0.1 to 1 | 0.1 to 1 | 0.01 to 0.1 | 0.01 to 0.1 |  |  |  |  |  |  |  |  | 
CCn1c(-c2cccnc2[C@H](C)OC)c2c3cc(ccc31)-c1cc(O)cc(c1)C[C@H](NC(=O)[C@H](C(C)C)N(C)C(=O)N1CCN(C(=O)[C@@H]3CN3)CC1=O)C(=O)N1CCC[C@H](N1)C(=O)OCC(C)(C)C2 (atropisomer, axis not shown) [Example 205] | 0.01 to 0.1 | 0.01 to 0.1 | 0.1 to 1 | 0.1 to 1 | 0.1 to 1 | 0.01 to 0.1 | < 0.01 | 0.1 to 1 | 0.1 to 1 | 1 to 10 | 0.01 to 0.1 | 0.01 to 0.1 |  |  |  |  |  |  |  |  | 
CCn1c(-c2cccnc2[C@H](C)OC)c2c3cc(ccc31)-c1cc(O)cc(c1)C[C@H](NC(=O)[C@H](C(C)C)N(C)C(=O)C1CCN(S(=O)(=O)[C@H]3CN3C)CC1)C(=O)N1CCC[C@H](N1)C(=O)OCC(C)(C)C2 (single isomer, unassigned) [Example 108] | 0.01 to 0.1 | 0.1 to 1 | 0.1 to 1 | 0.1 to 1 | 0.1 to 1 | 0.1 to 1 | 0.01 to 0.1 | 0.1 to 1 | 0.1 to 1 | 1 to 10 | 0.1 to 1 | 0.1 to 1 |  |  |  |  |  |  |  |  | 
CCn1c(-c2cccnc2[C@H](C)OC)c2c3cc(ccc31)-c1cc(cc(C(F)F)c1)C[C@H](NC(=O)[C@H](C1CCCC1)N(C)C(=O)CN(C)C(=O)[C@@H]1N[C@@H]1C1CC1)C(=O)N1CCC[C@H](N1)C(=O)OCC(C)(C)C2 [Example 320] |  |  |  |  |  |  |  |  |  |  |  |  | 0.1 to 1 | 1 to 10 | 1 to 10 | 1 to 10 | 1 to 10 | 0.1 to 1 | 0.1 to 1 | 1 to 10 | IC50 (NRAS Q61K): 1 to 10 µM; IC50 (KRAS G12D; [18]): 1 to 10 µM; IC50 (KRAS WT; [19]): 1 to 10 µM; IC50 (KRAS G12C; [20]): 0.1 to 1 µM
CCn1c(-c2cccnc2[C@H](C)OC)c2c3cc(ccc31)-c1csc(n1)C[C@H](NC(=O)[C@H](C1CCCC1)N(C)C(=O)CN(C)C(=O)[C@@H]1N[C@@H]1C1CC1)C(=O)N1CCC[C@H](N1)C(=O)OCC(C)(C)C2 [Example 210] |  |  |  |  |  |  |  |  |  |  |  |  | 0.1 to 1 | 1 to 10 | 1 to 10 | 1 to 10 | 1 to 10 | 0.1 to 1 | 1 to 10 | 1 to 10 | IC50 (NRAS Q61K): 1 to 10 µM; IC50 (KRAS G12D; [18]): 1 to 10 µM; IC50 (KRAS WT; [19]): 1 to 10 µM; IC50 (KRAS G12C; [20]): 0.1 to 1 µM
